In one experiment the test system is TAKA-1 cells. Kind of experiment: MTT cell growth assay, TAKA-1 cells (Example 1). The class given is cell-based, Syrian golden hamster. The following applies: 72 h. The source says:
(§1) Cell culture and proliferation assay: The following materials are purchased: FCS, RPMI and Dulbecco's modified Eagle medium (DMEM), trypsin-EDTA solution, penicillin-streptomycin solution from Biochrom K G (Berlin, Germany). All the other reagents are from Sigma Chemical Co. (St. Louis, Mo., USA). ASPC-1, MIA PaCA-2, human pancreatic cell lines are obtained from American Type Culture Collection (Rockville, Md.). Compound I is kindly provided by Novartis Pharma AG (Basel, Switzerland). T3M4 human pancreatic cell lines are a gift from Dr. R. S. Metzgar (Durham, N.C., USA). TAKA-1 immortalized Syrian golden hamster pancreatic ductal cells are a gift from Prof. P. Pour (University of Nebraska, Omaha, Nebr., USA). Human pancreatic cancer cell lines are routinely grown in DMEM (MIA-PaCA-2) or RPMI (ASPC-1, T3M4) supplemented with 10% FCS, 100 U/ml penicillin and 100 μg/ml streptomycin (complete medium).
TAKA-1 cells are grown in RPMI supplemented with 10% FCS, 100 U/ml penicillin and 100 μg/ml streptomycin. Cells are seeded overnight at a density of 5000 cells/well in 96-well plates and the proliferation assay is performed as described above. […] After 72 hours, 3-(4,5-methylthiazol-2-yl)-2,5-diphenyl-tetrazolium bromide (MTT) is added (50 μg/well) for 4 hours. Cellular MTT is solubilized with acidic isopropanol and the optical density is measured at 570 nm using a plate reader (Dynatech MR 7000). All experiments are performed in triplicates.
Statistical analysis: Results are expressed as mean±SD. For statistical analysis, the Student t-test is used. Significance is defined as p<0.05.
(Tetrazolium assays rely on reduction of a dye to a coloured formazan, in cell work by metabolically active cells.)

The test system of experiment [1] is T3M4 cells. The experiment in a line: MTT cell growth assay, T3M4 cells (Example 1). The class given is cell-based, human.
Description: as §1
(§2) TAKA-1 cells are grown in RPMI supplemented with 10% FCS, 100 U/ml penicillin and 100 μg/ml streptomycin. Cells are seeded overnight at a density of 5000 cells/well in 96-well plates and the proliferation assay is performed as described above. […] Cellular MTT is solubilized with acidic isopropanol and the optical density is measured at 570 nm using a plate reader (Dynatech MR 7000). […]
(§3) Statistical analysis: Results are expressed as mean±SD. […]

Experiment [2] has as its system TAKA-1 cells and the three pancreatic cancer cell lines. Kind of experiment: MTT cell growth assay, span over all four lines (Example 1). The class given is cell-based. The settings on record: span over TAKA-1 and three pancreatic cancer cell lines.
Description: as §1, §2, §3

The next experiment concerns ASPC-1 cells. The experiment in a line: GI50 by MTT assay, Aspc-1 (Example 2). It counts as cell-based. The settings on record: Homo sapiens, ASPC1, read-out: GI50 concentration. The source says:
(§4) Material and Methods: RPMI-1640 DMEM, trypsin-EDTA, and penicillin-streptomycin are purchased from Invitrogen (Karlsruhe, Germany); FBS from PAN Biotech (Aidenbach, Germany); human recombinant PDGF, IGF-1 and FGF-2 from R&D Systems (Abingdon, United Kingdom), and EGF from Upstate Biotechnology (Hamburg, Germany). Phospho-PDGFR-beta (tyr857) and P-EGFR (tyr1173) polyclonal antibodies are purchased from Santa Cruz Biotechnology, Inc. (Santa Cruz, Calif., USA). Phospho-p44/42 MAPK (Thr202/Tyr204) antibodies are purchased from Cell Signaling Technology (Frankfurt, Germany), anti-rabbit IgG HRPO-linked antibodies and ECL immunoblotting detection reagents from Amersham Biosciences (Amersham Life Science, Amersham, UK), and anti-goat IgG-HPRO peroxidase linked antibodies from Santa Cruz Biotechnology, Inc. (Santa Cruz, Calif., USA). Complete mini-EDTA-free protease inhibitor cocktail tablets and Annexin-V-Fluos are purchased from Roche GmbH (Mannheim, Germany). All other reagents are from Sigma Chemical Company (Taufkirchen, Germany).
(§5) Cell culture and MTT assay: Human pancreatic cancer cell lines are routinely grown in DMEM (Colo-357 and Mia-PaCa-2) or RPMI (Aspc-1, BxPc-3, Capan-1, and T3M4) supplemented with 10% FBS, 100 U/ml penicillin, and 100 μg/ml streptomycin (complete medium). […] Formazan products are solubilized with acidic isopropanol, and the optical density is measured at 570 nm. […]

In the next experiment the test system is Capan-1 cells. The experiment in a line: GI50 by MTT assay, Capan-1 (Example 2). The class given is cell-based. The settings on record: Homo sapiens, Capan-1, complete medium (10% FBS), 48 h, read-out: GI50 concentration.
Description: as §4, §5

Another experiment has as its system Colo-357 cells. The experiment in a line: GI50 by MTT assay, Colo-357 (Example 2). The class given is cell-based. The following applies: Homo sapiens, COLO357, Colo-357, complete medium (10% FBS), 48 h, read-out: GI50 concentration.
Description: as §4, §5

Experiment [3] concerns T3M4 cells. Kind of experiment: GI50 by MTT assay, T3M4 (Example 2). It counts as cell-based. The following applies: Homo sapiens, T3M4, complete medium (10% FBS), 48 h, read-out: GI50 concentration.
Description: as §4, §5

For experiment [4], the system named is T3M4 cells. The experiment in a line: Propidium iodide staining of cell death, T3M4. The class given is cell-based, human. The following applies: T3M4, Compound I at GI50, 1% FBS medium; control 5.7% ±2.8%. The source says:
(§6) The resulting DNA histograms are interpreted using the Cell Quest Pro software (Becton Dickinson and Company, New York, USA).

Experiment [5] deals with pancreatic cancer cell lines. The experiment in a line: FACS cell cycle analysis. It counts as cell-based, human. The following applies: 48 hours of incubation, Compound I at GI50, compared to untreated cells.
Description: as §6

Experiment [6] relates to T3M4 cells. The experiment in a line: Growth factor-induced proliferation (MTT), T3M4. The settings on record: T3M4, IGF-1 plus Compound I at GI50, 72 hours, MTT. It counts as cell-based, human. The procedure:
Cell culture and MTT assay: Human pancreatic cancer cell lines are routinely grown in DMEM (Colo-357 and Mia-PaCa-2) or RPMI (Aspc-1, BxPc-3, Capan-1, and T3M4) supplemented with 10% FBS, 100 U/ml penicillin, and 100 μg/ml streptomycin (complete medium). To assess cell proliferation, the MTT test is employed. […] After 48 or 72 hours of incubation, 3-(4,5-methylthiazol-2-yl)-2,5-diphenyl-tetrazolium bromide (MTT) is added (50 μg/well) for 4 hours. Formazan products are solubilized with acidic isopropanol, and the optical density is measured at 570 nm. […] All experiments are performed in triplicate.
EGF-induced proliferation of both Mia-PaCa-2 and T3M4 cell lines in a dose-dependent manner is seen with maximal effects of +72% ±7.5% (Mia-PaCa-2) and +52% ±23% (T3M4). […] FGF-2 markedly stimulates cell growth in Mia-PaCa-2 cell lines with maximal effects of +79% ±6%, and only slightly stimulated T3M4 cell lines, with maximal effects of +7% ±4%. […] Both cell lines are less sensitive to IGF-1 stimulation compared with EGF and FGF-2, with maximal effects of +24% ±2% in Mia-PaCa-2 and +17% ±4% in. T3M4.

The subject of the next experiment is pancreatic tumor cells. The following applies: complete medium (10% FCS) and 1% FCS medium.
Description: as §6

Experiment [7] concerns Lung cancer (6 cell lines). The following applies: other reported cancer cells, read-out: GI50 concentration; cited from earlier work.
Another experiment has as its system CML (K562 cell lines). The settings on record: other reported cancer cells, read-out: GI50 concentration; cited from earlier work.

Where “and” joins values, the source holds several entries; their conditions need not be identical. Identical values can stand only once. Entries after “also recorded” stand apart in the source; their conditions may differ. Like-named read-outs stand apart in the source and are kept apart here.

We go through 1 compound from US20060167006A1, “Method of treatment” (priority 2003, published 2006).

One may read the inhibition as the percentage by which the read-out fell short of the control. For the compound `Cc1ccc(NC(=O)c2ccc(CN3CCN(C)CC3)cc2)cc1Nc1nccc(-c2cccnc2)n1` [Compound I], in the experiment with TAKA-1 cells (Mesocricetus auratus, TAKA-1, 25 μM Compound I, read-out: Percent growth inhibition by comparison with control cell growth), the inhibition at 25 µM was found to be 70.9%. Moreover, the inhibition at 75 µM in the experiment on TAKA-1 cells (Mesocricetus auratus, TAKA-1, 75 μM Compound I, read-out: Percent growth inhibition by comparison with control cell growth) was 90.8%; in the experiment with T3M4 cells [1] (Homo sapiens, T3M4, 72 h, T3M4, 75 μM Compound I, read-out: Percent growth inhibition by comparison with control cell growth) it was 85.6%. Also, the “Percent growth inhibition by comparison with control cell growth” value is −65% and −67.9% in the experiment on TAKA-1 cells (TAKA-1, 25 μM Compound I, 25 µM); −91.5% and −90.6% in the experiment with TAKA-1 cells (TAKA-1, 75 μM Compound I, 75 µM); −12.9% and −4.8% and −3.8% with T3M4 cells [1] (T3M4, 5 μM Compound I, 72 h, 5 µM). The “Minimal threshold effects on cell growth” value in [2] (5 μM Compound I, p>0.05) was −4% to −9. For the same compound, in experiment [2] (75 µM Compound I, p<0.001), the “Maximal inhibitory effects on cell growth” value is −77% to −90. Further, the GI50 in the experiment on ASPC-1 cells (Aspc-1, complete medium (10% FBS), 48 h, MTT) is 31.5 µM; in the experiment with ASPC-1 cells (Aspc-1, low serum conditions (1% FCS)) it was 20 µM; in the experiment with Capan-1 cells, 19 µM; with Colo-357 cells, 17 µM; in the experiment on T3M4 cells [3] it was 25 µM; in experiment [7], ~5 µM. Further, the GI50 with CML (K562 cell lines) is 0.56 µM. For the same compound, the “Cell death by propidium iodide staining” value with T3M4 cells [4] was determined as 26.8% +16.5. Further, the “Change in cell cycle pattern” value in [5] is reported as “does not reveal any significant changes in the cell cycle pattern; also recorded: no cell cycle change”. Further, the “Inhibitory effect on IGF-1-induced proliferation” value in the experiment with T3M4 cells [6] is “no significant inhibitory effects”. Moreover, in the experiment with pancreatic tumor cells, the Apoptotic cell death result was “No apoptotic cell death is observed”.
